The results in this text go back to PubChem BioAssay (NCI).

Structures are written as SMILES.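 Each compound was tested at five concentrations against cells in 96-well plates for 48 hours. Here, GI50 denotes the concentration required for 50% inhibition of growth. TGI: concentration producing complete growth inhibition.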

Among the test systems are OVCAR-8 ovarian; K-562 leukemia; HCT-116 colon; COLO 205 colon; MDA-MB-435; NCI-H522 lung; SF-268 CNS; A549 NSCLC.
What all share (experiment): NCI-60 cell line screen, 48 h

Regarding `Cc1[nH]c(-c2cc(N)ccc2Cl)c2c1C(=O)CCCC2`, the GI50 with OVCAR-8 ovarian is 3.26 µM; in the test with K-562 leukemia, 3.59 µM; in the test with HCT-116 colon it was 3.92 µM; in the test on COLO 205 colon it was 3.91 µM; with MDA-MB-435, 3.24 µM; in the test on NCI-H522 lung, 1.13 µM. The results for the GI50 in the test with SF-268 CNS and in the test with A549 NSCLC were 7.99 µM and 7.91 µM, respectively. For the same compound, the TGI in the test on OVCAR-8 ovarian was over 100 µM; with K-562 leukemia, over 100 µM; in the test with HCT-116 colon it was over 100 µM; in the test on COLO 205 colon, over 100 µM; in the test with MDA-MB-435, 19.5 µM; in the test on NCI-H522 lung it was 15.2 µM. For the same compound, the TGI in the test with SF-268 CNS and with A549 NSCLC was over 100 µM each time.

As to `CN1CCN(CCCCCN=c2cc3c(=O)n(CCCCCN4CCN(C)CC4)c(=O)c4c(NCCCCCN5CCN(C)CC5)cc5c(O)n(CCCCCN6CCN(C)CC6)c(=O)c2c5c4-3)CC1`, the GI50 with OVCAR-8 ovarian was 3.92 µM; in the test with K-562 leukemia, 3.62 µM; in the test on HCT-116 colon, 3.31 µM; with COLO 205 colon, 2.31 µM; with MDA-MB-435 it was 2.7 µM; in the test with NCI-H522 lung it was 1.46 µM. Also, the GI50 was 2.07 µM in the test on SF-268 CNS and 2.92 µM with A549 NSCLC. Further, the TGI is 17.2 µM with OVCAR-8 ovarian; over 100 µM in the test with K-562 leukemia; 17.3 µM in the test on HCT-116 colon; 8.07 µM in the test on COLO 205 colon; 8.73 µM in the test with MDA-MB-435; 3.93 µM in the test with NCI-H522 lung. Besides, the TGI in the test with SF-268 CNS is 6.09 µM; in the test on A549 NSCLC it was 8.64 µM.

As for `O=C1c2c(Br)sc(Br)c2[C@@H](NC(=O)C(F)(F)F)C1Br` (stereo partly specified), the TGI is 7.73 µM with OVCAR-8 ovarian; 4.17 µM in the test with K-562 leukemia; 2.76 µM in the test with HCT-116 colon; 4.02 µM in the test with COLO 205 colon; 5.27 µM with MDA-MB-435; 5.07 µM with NCI-H522 lung. Moreover, the TGI in the test with SF-268 CNS worked out at 15.2 µM; with A549 NSCLC, 32.7 µM.

`COc1cccc(Oc2ccccc2NC(=O)CNC(=O)c2cccc3ccccc23)c1`: the GI50 was 0.684 µM in the test on OVCAR-8 ovarian; 0.13 µM in the test on K-562 leukemia; 0.0962 µM in the test with HCT-116 colon; 0.283 µM in the test on COLO 205 colon; 0.0711 µM in the test on MDA-MB-435; 0.176 µM in the test with NCI-H522 lung. Moreover, the figures for the GI50 in the test with SF-268 CNS and in the test on A549 NSCLC were 0.547 µM and 0.315 µM, respectively. For the same compound, the TGI in the test with OVCAR-8 ovarian is over 25 µM; with K-562 leukemia, over 25 µM; in the test with HCT-116 colon it was 3.77 µM; in the test on COLO 205 colon, 0.949 µM; with MDA-MB-435, 0.256 µM; in the test with NCI-H522 lung it was 2.02 µM. Further, the TGI with SF-268 CNS and in the test with A549 NSCLC was over 25 µM each time.

With `COc1cc(C(=O)c2cc(C)c3[nH]c4ccc(O)cc4c3c2C)cc(OC)c1OC`, the GI50 in the test with OVCAR-8 ovarian is 0.0317 µM; with K-562 leukemia, under 0.01 µM; in the test on HCT-116 colon, under 0.01 µM; in the test with COLO 205 colon it was 0.0298 µM; with MDA-MB-435, under 0.01 µM; with NCI-H522 lung, under 0.01 µM. The GI50 is 0.0741 µM in the test on SF-268 CNS and 0.0191 µM with A549 NSCLC. Also, the TGI is over 100 µM in the test on OVCAR-8 ovarian; over 100 µM in the test on K-562 leukemia; 0.11 µM with COLO 205 colon; 0.018 µM in the test on MDA-MB-435; 2.21 µM with NCI-H522 lung; over 100 µM with SF-268 CNS. The TGI in the test on A549 NSCLC was over 100 µM.

In the case of `O=C(O)c1ccccc1NC(=S)c1ccccc1`, the TGI is over 100 µM with OVCAR-8 ovarian; over 100 µM in the test on K-562 leukemia; over 100 µM with HCT-116 colon; over 100 µM with COLO 205 colon; over 100 µM in the test with MDA-MB-435; 39.8 µM with NCI-H522 lung. Moreover, the TGI in the test with SF-268 CNS and with A549 NSCLC was over 100 µM throughout.

With `COc1cc2ncc3c(nc4sccn43)c2cc1OC`, the GI50 with OVCAR-8 ovarian was 38.1 µM; in the test with K-562 leukemia it was 31.6 µM; in the test on HCT-116 colon, 13.7 µM; in the test on COLO 205 colon, 38.2 µM; in the test with MDA-MB-435, 27.2 µM; with NCI-H522 lung, 86.1 µM. The values for the GI50 in the test on SF-268 CNS and in the test with A549 NSCLC were over 100 µM and 28.7 µM, respectively. In addition, the TGI is over 100 µM in the test with OVCAR-8 ovarian; over 100 µM with K-562 leukemia; 78.2 µM in the test on HCT-116 colon; over 100 µM with COLO 205 colon; over 100 µM with MDA-MB-435; over 100 µM in the test on NCI-H522 lung. The TGI in the test with SF-268 CNS and in the test on A549 NSCLC was over 100 µM throughout.

Turning to `CC1c2ccccc2CCN1c1ccc(CO)c(Cl)c1` (stereo unspecified), the GI50 in the test with OVCAR-8 ovarian was 5.77 µM; in the test on K-562 leukemia, 0.385 µM; with HCT-116 colon, 0.0345 µM; with COLO 205 colon, 0.19 µM; with MDA-MB-435, 17.3 µM; in the test on NCI-H522 lung, 17.4 µM. Besides, the GI50 in the test with SF-268 CNS was 40.8 µM; in the test on A549 NSCLC, 0.759 µM. For the same compound, the TGI was 52.6 µM in the test with OVCAR-8 ovarian; over 100 µM in the test with K-562 leukemia; 12.6 µM in the test with HCT-116 colon; 0.626 µM in the test on COLO 205 colon; 53.5 µM in the test with MDA-MB-435; 50.5 µM with NCI-H522 lung. The TGI with SF-268 CNS was over 100 µM; in the test on A549 NSCLC, 17.1 µM.

Turning to `Fc1cccc(F)c1C(Nc1nncs1)Nc1nncs1`, the TGI in the test with OVCAR-8 ovarian, in the test on K-562 leukemia, in the test with HCT-116 colon, with COLO 205 colon, in the test on MDA-MB-435 and with NCI-H522 lung was over 100 µM throughout. Moreover, the TGI in the test with SF-268 CNS and with A549 NSCLC was over 100 µM in each case.

On to `N/C(=N\OC(=O)c1ccccc1)C(Cc1ccccc1)C(=O)NOC(=O)c1ccccc1` (stereo unspecified), for which the GI50 with OVCAR-8 ovarian was 2.11 µM; with K-562 leukemia, 1.05 µM; in the test on HCT-116 colon it was 1.66 µM; in the test on COLO 205 colon, 3.94 µM; in the test with MDA-MB-435 it was 1.76 µM; in the test on NCI-H522 lung, 1.7 µM. Also, the GI50 was 1.64 µM in the test with SF-268 CNS and 1.52 µM in the test on A549 NSCLC. The TGI with OVCAR-8 ovarian amounted to 6.53 µM; with K-562 leukemia, 3.42 µM; with HCT-116 colon, 3.38 µM; with COLO 205 colon, 14.7 µM; in the test on MDA-MB-435 it was 3.9 µM; in the test with NCI-H522 lung it was 3.47 µM. Further, the TGI in the test on SF-268 CNS was found to be 3.33 µM; in the test on A549 NSCLC, 3.22 µM.

Regarding `COc1cc(/C=C/c2ccc3c(Br)cc(Br)c(O)c3n2)ccc1O`, the GI50 in the test with OVCAR-8 ovarian was 2.14 µM; in the test on K-562 leukemia, 0.441 µM; with HCT-116 colon, 0.532 µM; in the test with COLO 205 colon, 5.01 µM; with MDA-MB-435, 3.38 µM; in the test with NCI-H522 lung, 2.36 µM. Moreover, the GI50 in the test with SF-268 CNS is 1.31 µM; with A549 NSCLC, 1.21 µM. Also, the TGI with OVCAR-8 ovarian was 15.5 µM; in the test on K-562 leukemia it was 10.5 µM; in the test with HCT-116 colon, 3.7 µM; in the test with COLO 205 colon it was 17.2 µM; with MDA-MB-435, 19.6 µM; in the test with NCI-H522 lung, 11 µM. Besides, the TGI with SF-268 CNS is 14.8 µM; in the test with A549 NSCLC, 12.9 µM.

Turning to `Clc1ccc(C2ON=C(c3ccccc3)N2C23CC4CC(CC(C4)C2)C3)cc1` (stereo unspecified), the TGI with OVCAR-8 ovarian, in the test on K-562 leukemia, in the test with HCT-116 colon, with COLO 205 colon, in the test on MDA-MB-435 and in the test with NCI-H522 lung was over 10 µM in each case. The TGI in the test on SF-268 CNS and in the test with A549 NSCLC was over 10 µM throughout.

In the case of `COc1ccc(C(=O)/C=C/c2ccc(OCC#N)cc2)cc1`, the TGI with OVCAR-8 ovarian was over 100 µM; in the test with K-562 leukemia, 96.6 µM; with HCT-116 colon it was 24.6 µM; in the test on COLO 205 colon it was 40.5 µM; in the test on MDA-MB-435 it was 59.3 µM; in the test with NCI-H522 lung, 35.6 µM. The TGI in the test on SF-268 CNS and in the test on A549 NSCLC was over 100 µM in each case.

With `Cc1[nH]nc(-c2ccon2)c1N=O`, the TGI in the test on OVCAR-8 ovarian is 31.6 µM; in the test with K-562 leukemia it was 44.8 µM; with HCT-116 colon, 56.8 µM; in the test with COLO 205 colon, 49.4 µM; in the test with MDA-MB-435, 41 µM; in the test with NCI-H522 lung it was 48.5 µM. In addition, the figures for the TGI with SF-268 CNS and with A549 NSCLC were 42.8 µM and 57.6 µM, respectively.

Take `CN1CCc2nc3sc(C(N)=O)c(N)c3c(-c3cccs3)c2C1`: the GI50 with OVCAR-8 ovarian is 2.7 µM; with K-562 leukemia it was 4.99 µM; in the test with HCT-116 colon, 2.31 µM; in the test on COLO 205 colon, 1.43 µM; with MDA-MB-435, 3.13 µM; with NCI-H522 lung it was 2.91 µM. In addition, the GI50 in the test with SF-268 CNS is 3.85 µM; in the test on A549 NSCLC, 3.37 µM. Further, the TGI was over 100 µM with OVCAR-8 ovarian; over 100 µM with K-562 leukemia; over 100 µM in the test with HCT-116 colon; 3.66 µM in the test with COLO 205 colon; over 100 µM in the test on MDA-MB-435; 17.8 µM in the test on NCI-H522 lung. Also, the TGI in the test with SF-268 CNS and with A549 NSCLC was over 100 µM in each case.

`C[C@@H]1O[C@@H](O[C@@H]2[C@@H](O)[C@H](OCCc3ccc(O)c(O)c3)O[C@H](CO)[C@H]2OC(=O)/C=C/c2ccc(O)c(O)c2)[C@H](O)[C@H](OC2OC[C@](O)(CO)[C@H]2O)[C@H]1O` (stereo partly specified): the GI50 is 18.7 µM in the test on OVCAR-8 ovarian; 58.5 µM in the test with K-562 leukemia; 30.4 µM in the test on HCT-116 colon; over 100 µM in the test with COLO 205 colon; 17.5 µM in the test with MDA-MB-435; over 100 µM in the test on NCI-H522 lung. Further, the GI50 with A549 NSCLC was over 100 µM. Besides, the TGI was 40 µM with OVCAR-8 ovarian; over 100 µM in the test on K-562 leukemia; 65.4 µM in the test on HCT-116 colon; over 100 µM in the test with COLO 205 colon; 34.6 µM in the test on MDA-MB-435; over 100 µM in the test on NCI-H522 lung. Besides, the TGI is 53.4 µM in the test on SF-268 CNS and over 100 µM in the test with A549 NSCLC.
